The compounds below were run on PC12 cells (assay: Neurite sprouting in PC12 cells). Settings: 10^-6 M, serum-free vehicle with 50 ng/ml NGF, third day; controls 21.5.
Type: cell-based
Method: The cells are then washed three times in a serum-free vehicle. […] This effect is evaluated by counting the number of cells with neurites at the third day.

SMILES | % of the no. of cells with neurites at 3rd day [%]
CCCCCCCCCCCCC/C=C/[C@@H](O)[C@H](CO[C@@H]1O[C@H](CO)[C@@H](O[C@@H]2O[C@H](CO)[C@H](O[C@@H]3O[C@H](CO)[C@H](O)[C@H](O[C@@H]4O[C@H](CO)[C@H](O)[C@H](O)[C@H]4O)[C@H]3NC(C)=O)[C@H](O[C@]3(C(=O)NCCCN(C)C)C[C@H](O)[C@@H](NC(C)=O)[C@H]([C@H](O)[C@H](O)CO)O3)[C@H]2O)[C@H](O)[C@H]1O)NC(=O)CCCCCCCCCCCCCCCCC [3-dimethylaminopropyl-1-amide of GM1, 3-dimethylaminopropyl-1-amide of the ganglioside GM1] | 37.3
CCCCCCCCCCCCC/C=C/[C@@H](O)[C@H](CO[C@@H]1O[C@H](CO)[C@@H](O[C@@H]2O[C@H](CO)[C@H](O[C@@H]3O[C@H](CO)[C@H](O)[C@H](O[C@@H]4O[C@H](CO)[C@H](O)[C@H](O)[C@H]4O)[C@H]3NC(C)=O)[C@H](O[C@]3(C(=O)NCCCCCCO)C[C@H](O)[C@@H](NC(C)=O)[C@H]([C@H](O)[C@H](O)CO)O3)[C@H]2O)[C@H](O)[C@H]1O)NC(=O)CCCCCCCCCCCCCCCCC [6-hydroxyhexyl-1-amide of GM1, 6-hydroxyhexyl-1-amide of the ganglioside GM1] | 36.4
C=CCOC(=O)[C@@]1(O[C@@H]2[C@@H](O)[C@H](O[C@H]3[C@H](O)[C@@H](O)[C@H](OC[C@H](NC(=O)CCCCCCCCCCCCCCCCC)[C@H](O)/C=C/CCCCCCCCCCCCC)O[C@@H]3CO)O[C@H](CO)[C@@H]2O[C@@H]2O[C@H](CO)[C@H](O)[C@H](O[C@@H]3O[C@H](CO)[C@H](O)[C@H](O)[C@H]3O)[C@H]2NC(C)=O)C[C@H](O)[C@@H](NC(C)=O)[C@H]([C@H](O)[C@H](O)CO)O1 [Allylic ester of GM1, Allyl ester of the ganglioside GM1] | 31.5
CCCCCCCCCCCCC/C=C/[C@@H](OC(C)=O)[C@H](CO[C@@H]1O[C@H](COC(C)=O)[C@@H](O[C@@H]2O[C@H](COC(C)=O)[C@H](O[C@@H]3O[C@H](COC(C)=O)[C@H](OC(C)=O)[C@H](O[C@@H]4O[C@H](COC(C)=O)[C@H](OC(C)=O)[C@H](OC(C)=O)[C@H]4OC(C)=O)[C@H]3NC(C)=O)[C@H](O[C@]3(C(N)=O)C[C@H](OC(C)=O)[C@@H](NC(C)=O)[C@H]([C@H](OC(C)=O)[C@@H](COC(C)=O)OC(C)=O)O3)[C@H]2OC(C)=O)[C@H](OC(C)=O)[C@H]1OC(C)=O)NC(=O)CCCCCCCCCCCCCCCCC [Amide of peracetylated GM1, Peracetylated derivative of the amide of the ganglioside GM1] | 31.4
CCCCCCCCCCCCC/C=C/[C@@H](O)[C@H](CO[C@@H]1O[C@H](CO)[C@@H](O[C@@H]2O[C@H](CO)[C@H](O[C@@H]3O[C@H](CO)[C@H](O)[C@H](O[C@@H]4O[C@H](CO)[C@H](O)[C@H](O)[C@H]4O)[C@H]3NC(C)=O)[C@H](O[C@]3(C(=O)NCc4ccccc4)C[C@H](O)[C@@H](NC(C)=O)[C@H]([C@H](O)[C@H](O)CO)O3)[C@H]2O)[C@H](O)[C@H]1O)NC(=O)CCCCCCCCCCCCCCCCC [Benzylamide of GM1, Benzylamide of the ganglioside GM1] | 30.8
CCCCCCCCCCCCC/C=C/[C@@H](O)[C@H](CO[C@@H]1O[C@H](CO)[C@@H](O[C@@H]2O[C@H](CO)[C@H](O[C@@H]3O[C@H](CO)[C@H](O)[C@H](O[C@@H]4O[C@H](CO)[C@H](O)[C@H](O)[C@H]4O)[C@H]3NC(C)=O)[C@H](O[C@]3(C(=O)OCc4ccccc4)C[C@H](O)[C@@H](NC(C)=O)[C@H]([C@H](O)[C@H](O)CO)O3)[C@H]2O)[C@H](O)[C@H]1O)NC(=O)CCCCCCCCCCCCCCCCC [Benzylic ester of GM1, Benzyl ester of the ganglioside GM1] | 28.3
